Legend:
[1] = molecular target: 3',5'-cyclic-AMP phosphodiesterase 4D (Homo sapiens, UniProt Q08499); assay: Inhibition of human PDE4D2 catalytic domain (86 to 413 residues) expressed in Escherichia coli strain BL21 using [3H]cAMP as substrate after 15 mins by liquid scintillation counter analysis
[2] = molecular target: Dual specificity calcium/calmodulin-dependent 3',5'-cyclic nucleotide phosphodiesterase 1B (Homo sapiens, UniProt Q01064); assay: Inhibition of human PDE1B2 catalytic domain (10 to 487 residues) expressed in Escherichia coli strain BL21 using [3H]cAMP as substrate after 15 mins by liquid scintillation counter analysis
Sequence of Dual specificity calcium/calmodulin-dependent 3',5'-cyclic nucleotide phosphodiesterase 1B (Q01064 whole entry, the tested form may be a part): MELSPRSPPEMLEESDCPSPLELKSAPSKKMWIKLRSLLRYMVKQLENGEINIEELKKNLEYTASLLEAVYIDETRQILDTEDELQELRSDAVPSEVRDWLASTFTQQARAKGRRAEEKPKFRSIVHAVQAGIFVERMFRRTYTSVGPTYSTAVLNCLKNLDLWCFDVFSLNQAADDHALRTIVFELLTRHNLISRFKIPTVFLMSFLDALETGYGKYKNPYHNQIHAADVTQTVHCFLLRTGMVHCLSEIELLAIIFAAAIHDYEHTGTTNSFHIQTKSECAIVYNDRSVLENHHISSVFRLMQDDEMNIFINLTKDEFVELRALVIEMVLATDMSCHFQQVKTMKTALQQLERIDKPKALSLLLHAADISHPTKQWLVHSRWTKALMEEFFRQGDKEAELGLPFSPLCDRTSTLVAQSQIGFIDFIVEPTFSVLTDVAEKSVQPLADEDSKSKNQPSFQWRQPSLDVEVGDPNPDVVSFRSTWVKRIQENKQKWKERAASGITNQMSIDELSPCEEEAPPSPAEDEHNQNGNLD

Homo sapiens [3] = organism: Homo sapiens; assay: Selectivity ratio of IC50 for human PDE5A1 catalytic domain (535 to 860 residues) expressed in Escherichia coli strain BL21 to IC50 for human PDE4D2 catalytic domain (86 to 413 residues) expressed in Escherichia coli strain BL21
[4] = molecular target: cGMP-dependent 3',5'-cyclic phosphodiesterase (Homo sapiens, UniProt O00408); assay: Inhibition of human PDE2A3 catalytic domain (222 to 904 residues) expressed in Escherichia coli strain BL21 using [3H]cAMP as substrate after 15 mins by liquid scintillation counter analysis
Sequence of cGMP-dependent 3',5'-cyclic phosphodiesterase (O00408 whole entry, the tested form may be a part): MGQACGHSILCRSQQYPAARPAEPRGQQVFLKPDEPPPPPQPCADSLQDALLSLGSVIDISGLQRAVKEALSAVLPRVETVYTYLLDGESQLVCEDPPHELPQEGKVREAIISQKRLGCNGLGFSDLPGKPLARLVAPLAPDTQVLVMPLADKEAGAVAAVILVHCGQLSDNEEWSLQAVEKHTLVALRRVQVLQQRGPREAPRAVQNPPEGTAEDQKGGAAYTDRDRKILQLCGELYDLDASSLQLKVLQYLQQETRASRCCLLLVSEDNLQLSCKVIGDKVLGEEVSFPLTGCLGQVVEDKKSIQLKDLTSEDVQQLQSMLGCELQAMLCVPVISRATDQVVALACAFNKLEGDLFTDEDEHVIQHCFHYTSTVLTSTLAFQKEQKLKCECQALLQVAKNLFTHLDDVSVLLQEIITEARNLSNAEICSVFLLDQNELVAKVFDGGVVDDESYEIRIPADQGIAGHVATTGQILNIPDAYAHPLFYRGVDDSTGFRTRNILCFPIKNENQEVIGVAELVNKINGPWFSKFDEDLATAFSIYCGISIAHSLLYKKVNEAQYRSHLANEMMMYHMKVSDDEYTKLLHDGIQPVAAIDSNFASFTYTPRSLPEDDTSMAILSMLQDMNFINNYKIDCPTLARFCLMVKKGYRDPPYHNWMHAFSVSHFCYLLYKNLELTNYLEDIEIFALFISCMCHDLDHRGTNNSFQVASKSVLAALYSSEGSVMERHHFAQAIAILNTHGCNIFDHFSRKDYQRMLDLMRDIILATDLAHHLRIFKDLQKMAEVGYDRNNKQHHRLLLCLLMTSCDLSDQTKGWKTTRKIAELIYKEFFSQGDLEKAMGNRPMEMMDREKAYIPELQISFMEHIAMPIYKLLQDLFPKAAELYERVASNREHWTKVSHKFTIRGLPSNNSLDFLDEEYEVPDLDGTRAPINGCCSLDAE

Homo sapiens [5] = organism: Homo sapiens; assay: Selectivity ratio of IC50 for human PDE9A2 catalytic domain (181 to 506 residues) expressed in Escherichia coli strain BL21 to IC50 for human PDE4D2 catalytic domain (86 to 413 residues) expressed in Escherichia coli strain BL21
[6] = molecular target: cGMP-specific 3',5'-cyclic phosphodiesterase (Homo sapiens, UniProt O76074); assay: Inhibition of human PDE5A1 catalytic domain (535 to 860 residues) expressed in Escherichia coli strain BL21 using [3H]cAMP as substrate after 15 mins by liquid scintillation counter analysis
Homo sapiens [7] = organism: Homo sapiens; assay: Selectivity ratio of IC50 for human PDE2A3 catalytic domain (222 to 904 residues) expressed in Escherichia coli strain BL21 to IC50 for human PDE4D2 catalytic domain (86 to 413 residues) expressed in Escherichia coli strain BL21
[8] = molecular target: cAMP and cAMP-inhibited cGMP 3',5'-cyclic phosphodiesterase 10A (Homo sapiens, UniProt Q9Y233); assay: Inhibition of human PDE10A2 catalytic domain (448 to 789 residues) expressed in Escherichia coli strain BL21 using [3H]cAMP as substrate after 15 mins by liquid scintillation counter analysis
Sequence of cAMP and cAMP-inhibited cGMP 3',5'-cyclic phosphodiesterase 10A (Q9Y233 whole entry, the tested form may be a part): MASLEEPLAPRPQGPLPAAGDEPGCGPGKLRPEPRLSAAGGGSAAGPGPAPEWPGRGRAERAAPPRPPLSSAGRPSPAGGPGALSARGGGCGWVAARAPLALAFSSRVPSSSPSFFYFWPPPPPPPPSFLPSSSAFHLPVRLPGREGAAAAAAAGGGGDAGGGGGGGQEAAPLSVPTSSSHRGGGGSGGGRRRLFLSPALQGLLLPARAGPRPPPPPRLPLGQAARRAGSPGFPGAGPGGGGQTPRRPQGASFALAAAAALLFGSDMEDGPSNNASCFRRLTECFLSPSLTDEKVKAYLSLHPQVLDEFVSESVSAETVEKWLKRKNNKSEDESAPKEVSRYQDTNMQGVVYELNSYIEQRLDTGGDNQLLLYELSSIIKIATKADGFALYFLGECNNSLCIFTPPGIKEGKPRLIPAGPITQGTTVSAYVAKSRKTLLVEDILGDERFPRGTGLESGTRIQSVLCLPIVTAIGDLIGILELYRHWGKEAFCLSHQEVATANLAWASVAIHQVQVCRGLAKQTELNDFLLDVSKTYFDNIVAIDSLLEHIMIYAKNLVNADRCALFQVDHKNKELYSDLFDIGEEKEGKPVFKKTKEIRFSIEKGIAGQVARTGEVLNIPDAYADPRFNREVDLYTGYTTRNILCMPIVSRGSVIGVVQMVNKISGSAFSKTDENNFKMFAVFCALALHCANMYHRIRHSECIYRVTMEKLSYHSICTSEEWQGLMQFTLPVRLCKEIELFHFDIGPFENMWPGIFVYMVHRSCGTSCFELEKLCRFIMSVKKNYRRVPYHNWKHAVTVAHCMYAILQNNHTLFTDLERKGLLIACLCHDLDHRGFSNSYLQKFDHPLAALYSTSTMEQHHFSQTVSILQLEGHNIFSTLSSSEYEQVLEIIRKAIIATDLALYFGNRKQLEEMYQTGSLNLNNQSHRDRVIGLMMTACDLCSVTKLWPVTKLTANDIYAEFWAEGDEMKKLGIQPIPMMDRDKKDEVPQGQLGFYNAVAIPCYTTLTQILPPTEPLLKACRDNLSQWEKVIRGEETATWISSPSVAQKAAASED

[9] = molecular target: High affinity cGMP-specific 3',5'-cyclic phosphodiesterase 9A (Homo sapiens, UniProt O76083); assay: Inhibition of human PDE9A2 catalytic domain (181 to 506 residues) expressed in Escherichia coli strain BL21 using [3H]cAMP as substrate after 15 mins by liquid scintillation counter analysis
Sequence of High affinity cGMP-specific 3',5'-cyclic phosphodiesterase 9A (O76083 whole entry, the tested form may be a part): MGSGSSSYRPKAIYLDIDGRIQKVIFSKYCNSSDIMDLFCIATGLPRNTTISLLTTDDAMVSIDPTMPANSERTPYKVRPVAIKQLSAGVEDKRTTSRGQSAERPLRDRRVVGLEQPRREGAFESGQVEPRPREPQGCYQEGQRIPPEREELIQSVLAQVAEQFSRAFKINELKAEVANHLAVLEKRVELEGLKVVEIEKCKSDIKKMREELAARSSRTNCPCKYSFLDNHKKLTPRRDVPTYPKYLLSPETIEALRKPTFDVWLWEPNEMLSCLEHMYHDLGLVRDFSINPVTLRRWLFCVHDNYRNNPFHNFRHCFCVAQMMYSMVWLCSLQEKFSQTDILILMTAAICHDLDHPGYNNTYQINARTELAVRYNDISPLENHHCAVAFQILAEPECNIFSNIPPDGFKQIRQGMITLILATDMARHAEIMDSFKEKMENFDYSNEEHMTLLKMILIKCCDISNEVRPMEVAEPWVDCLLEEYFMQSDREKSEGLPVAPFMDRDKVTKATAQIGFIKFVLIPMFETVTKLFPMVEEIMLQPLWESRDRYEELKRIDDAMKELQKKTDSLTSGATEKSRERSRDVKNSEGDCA

Homo sapiens [10] = organism: Homo sapiens; assay: Selectivity ratio of IC50 for human PDE10A2 catalytic domain (448 to 789 residues) expressed in Escherichia coli strain BL21 to IC50 for human PDE4D2 catalytic domain (86 to 413 residues) expressed in Escherichia coli strain BL21
Homo sapiens [11] = organism: Homo sapiens; assay: Selectivity ratio of IC50 for human PDE1B2 catalytic domain (10 to 487 residues) expressed in Escherichia coli strain BL21 to IC50 for human PDE4D2 catalytic domain (86 to 413 residues) expressed in Escherichia coli strain BL21

Sequence of 3',5'-cyclic-AMP phosphodiesterase 4D (Q08499 whole entry, the tested form may be a part): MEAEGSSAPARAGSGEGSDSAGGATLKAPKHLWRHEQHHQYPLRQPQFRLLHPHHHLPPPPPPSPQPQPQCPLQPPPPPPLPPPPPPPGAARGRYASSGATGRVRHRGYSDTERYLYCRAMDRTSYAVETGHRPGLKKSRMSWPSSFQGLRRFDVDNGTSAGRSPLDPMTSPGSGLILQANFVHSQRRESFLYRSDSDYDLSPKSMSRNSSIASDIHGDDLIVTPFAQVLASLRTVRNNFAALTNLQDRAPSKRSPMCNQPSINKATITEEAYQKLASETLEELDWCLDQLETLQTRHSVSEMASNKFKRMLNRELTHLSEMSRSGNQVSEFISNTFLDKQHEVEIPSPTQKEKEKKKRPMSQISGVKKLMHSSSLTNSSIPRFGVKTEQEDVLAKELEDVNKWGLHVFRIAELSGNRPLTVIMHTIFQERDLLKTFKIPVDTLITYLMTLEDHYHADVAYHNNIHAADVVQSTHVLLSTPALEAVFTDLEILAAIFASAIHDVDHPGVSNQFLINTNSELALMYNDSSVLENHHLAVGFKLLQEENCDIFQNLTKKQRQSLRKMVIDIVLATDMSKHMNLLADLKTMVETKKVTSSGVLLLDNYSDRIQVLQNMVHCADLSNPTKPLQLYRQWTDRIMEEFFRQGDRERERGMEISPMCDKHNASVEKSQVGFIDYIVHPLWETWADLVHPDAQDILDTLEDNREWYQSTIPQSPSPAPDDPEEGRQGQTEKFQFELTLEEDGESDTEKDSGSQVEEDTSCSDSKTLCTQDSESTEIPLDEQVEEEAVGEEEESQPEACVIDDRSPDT

SMILES | IC50 [1] [nM] | other results
CC(C)=CCc1c(O)cc2oc(-c3ccc(O)cc3O)c(CC=C(C)C)c(=O)c2c1O [CUDRAFLAVONE C] | 260 | 
CC1(C)C=Cc2c(ccc(-c3cc(=O)c4c(O)cc5c(c4o3)C=CC(C)(C)O5)c2O)O1 | 30 | 
CC(C)=CCCC1(C)C=Cc2cc(C3CC(=O)c4c(O)cc(O)cc4O3)c(O)cc2O1 (stereo unspecified) | 3590 | 
CC(C)=CCC/C(C)=C/Cc1c(O)ccc([C@@H]2CC(=O)c3c(O)cc(O)cc3O2)c1O | 2330 | 
C=CC(C)(C)c1cc(-c2cc(=O)c3c(O)cc(O)cc3o2)c(O)cc1O | 1880 | 
CC(C)=C[C@H]1Oc2cc(O)ccc2-c2oc3c4c(cc(O)c3c(=O)c21)OC(C)(C)C=C4 | 5.4 | inhibition [1]: Dose-dependent effect; IC50 [2]: 300 nM; Ratio IC50 (Homo sapiens [3]): 76; IC50 [4]: 590 nM; Ratio IC50 (Homo sapiens [5]): 65; IC50 [6]: 410 nM; Ratio IC50 (Homo sapiens [7]): 109; IC50 [8]: 510 nM; IC50 [9]: 350 nM; Ratio IC50 (Homo sapiens [10]): 94; Ratio IC50 (Homo sapiens [11]): 55
CC(C)=CCc1c(O)cc(O)c2c(=O)c3c(oc12)-c1ccc(O)cc1OC3C=C(C)C (stereo unspecified) | 40 | 
CC(C)=CCc1c(O)cc(O)c2c(=O)cc(-c3ccc(O)cc3)oc12 | 630 | 
CC(C)=CCc1c(-c2ccc(O)cc2O)oc2c(CC=C(C)C)c(O)cc(O)c2c1=O [KUWANON C] | 310 | 
COc1ccc2c(c1)O[C@H](C=C(C)C)c1c-2oc2c3c(cc(O)c2c1=O)OC(C)(C)C=C3 | 5180 | 
COC1CC(C)(C)Oc2cc(O)c3c(=O)c(CC=C(C)C)c(-c4ccc(O)cc4O)oc3c21 (stereo unspecified) | 20 | 
CC(C)=CCCC1(C)C=Cc2c(ccc(-c3oc4cc(O)cc(O)c4c(=O)c3CC=C(C)C)c2O)O1 (stereo unspecified) | 270 | 
CC(C)=CCc1cc([C@@H]2CC(=O)c3c(O)cc(O)cc3O2)c(O)c(CC=C(C)C)c1O | 9900 | 

More lines, main results first:

IC50 [1] [nM] | SMILES | other results
400 | CC(C)=CC1Oc2cc(O)ccc2-c2oc3cc(O)cc(O)c3c(=O)c21 (stereo unspecified) | 
4350 | CC(C)C[C@H]1Oc2cc(O)ccc2-c2oc3c4c(cc(O)c3c(=O)c21)OC(C)(C)CC4 | 
4890 | CC(=O)Oc1ccc2c(c1)O[C@H](C=C(C)C)c1c-2oc2c3c(cc(O)c2c1=O)OC(C)(C)C=C3 | 
2190 | CC(C)=CCC/C(C)=C/Cc1c(O)c(CC=C(C)C)cc([C@@H]2CC(=O)c3c(O)cc(O)cc3O2)c1O | 
8600 | COc1ccc2c(c1)O[C@@H](C=C(C)C)c1c-2oc2c3c(cc(O)c2c1=O)OC(C)(C)C=C3 | 
250 | CC(C)=C[C@@H]1Oc2cc(O)ccc2-c2oc3c4c(cc(O)c3c(=O)c21)OC(C)(C)C=C4 | inhibition [1]: Dose-dependent effect
900 | CC(C)=CCc1c(-c2ccc(O)cc2O)oc2c3c(cc(O)c2c1=O)OC(C)(C)C=C3 [MORUSIN] | 
1260 | CC(C)=CCC/C(C)=C/Cc1cc([C@@H]2CC(=O)c3c(O)cc(O)cc3O2)c(O)cc1O | 
870 | CC1(C)C=Cc2c(c3c(c4c(=O)cc(-c5ccc(O)cc5O)oc24)OC(C)(C)CC3)O1 | 
9210 | C/C(C=O)=C\Cc1c(-c2ccc(O)cc2O)oc2c3c(cc(O)c2c1=O)OC(C)(C)C=C3 | 
7500 | CC(C)C[C@@H]1Oc2cc(O)ccc2-c2oc3c4c(cc(O)c3c(=O)c21)OC(C)(C)CC4 | 
